SMILES strings stand for the structures.

Common to all, as to assay type: cell-based
Experiment [1] has as its system Mouse ES cells (J1 strain). The experiment can be described thus: Hcrt expression with ManNAc plus Sirt inhibitor or Ogt inhibitor, neural differentiation from mouse ES cell, RT-PCR. Particulars: ManNAc 1.0 mM from 0th day, EX-527 50 nM on 7th day, collected 10th day; FIG. 8. The method, then: According to the same manner as that described in Example 1, mouse ES cells (J1 strain) were cultured for 10 days for differentiation induction into a nerve cell. A protocol of inducing differentiation into a nerve cell is shown in the upper column of FIG. 11. From the initiation of differentiation culturing (0th day), ManNAc was added to a neural differentiation medium so that the concentration became 1.0 mM, and the medium was exchanged on 4th and 7th days of differentiation culturing. In addition, from 4th day of differentiation culturing, 5 nM recombinant human BMP4 (Wako) was added. On 7th day of differentiation culturing, EX-527 (SIGMA-ALDRICH) was added to a neural differentiation medium so that the concentration became 50 nM or BADGP (SIGMA-ALDRICH) was added to a neural differentiation medium so that the concentration became 1 or 5 mM, and on 10th day of differentiation culturing, cells were collected and subjected to RT-PCR. The conditions of RT-PCR are the same as those of Example 1.

Experiment [2] deals with human iPS cell strain 201B7. In words: Hcrt expression with ManNAc plus Sirt inhibitor and Ogt inhibitor, neural differentiation from human iPS cell, RT-PCR. As to conditions: ManNAc 1.0 mM from 0th day, EX-527 50 nM and/or BADGP 5 mM on 14th day, collected 20th day; FIG. 10. The method, then: A human iPS cell strain 201B7 (HSP0001) was obtained from Riken BioResource Center via National BioResource Project (MEXT, Japan). The human iPS cell was maintained on a feeder layer of a mitomycin C-treated STO/Neo resistant/LIF (SNL) feeder cell in a primate ES medium (ReproCELL) complemented with 5 ng/mL recombinant human bFGF (Wako). The human iPS cell was co-cultured with PA6 for 20 days, for differentiation induction into a nerve with a SIDA and BMP4 system. From 7th day, 5 nM BMP4 was complemented. A detailed protocol of differentiation induction into a nerve cell is shown in the lower column of FIG. 11. From the initiation of differentiation culturing (0th day), ManNAc was added to a neural differentiation medium so that the concentration became 1.0 mM, and on 7th, 10th and 14th days of differentiation culturing, the medium was exchanged. In addition, from 7th day of differentiation culturing, 5 nM recombinant human BMP4 (Wako) was added. On 14th day of differentiation culturing, EX-527 (SIGMA-ALDRICH) was added to a neural differentiation medium so that the concentration became 50 nM, or BADGP (SIGMA-ALDRICH) was added to a neural differentiation medium so that the concentration became 5 mM, and on 20th day of differentiation culturing, cells were collected and subjected to RT-PCR. The conditions of RT-PCR are the same as those of Example 1.

Experiment [3] has as its system Mouse ES cells (J1 strain). In words: Induction of Hcrt expression in neural differentiation from mouse ES cells, SDIA differentiation culture system, RT-PCR. As to conditions: for Expression of Hcrt with changed time of addition: 1.0 mM, addition time varied, FIG. 3; for Expression of an orexin gene (Hcrt): added from initiation of differentiation culturing at 0.2 and 1.0 mM, cells collected on 10th day, FIG. 2. Here is the method:
Mouse ES cells (J1 strain) which had been maintained in a medium for an ES cell [DMEM (Wako) added with 15% FBS (Biowest), 1 mM sodium pyruvate (Invitrogen), […] (Invitrogen), 2 mM L-glutamine (Invitrogen), 1 mM non essential amino acid (Invitrogen), 50 U/ml penicillin/50 μg/ml streptomycin (Invitrogen), 2000 U leukemia inhibitory factor (Chemicon, CA)] were seeded on a 10 cm culture dish so that the cell count became 1×10^5 cells per culture dish on which PA6 stromal cells had been seeded in advance, and differentiation induction was performed in a medium for neural differentiation [Glasgow MEM (Invitrogen) added with 10% KSR (Invitrogen), […] (Invitrogen), 1 mM non essential amino acid (Invitrogen), 50 U/ml penicillin/50 μg/ml streptomycin (Invitrogen)] for 10 days. On 4th and 7th days of differentiation culturing, the medium was exchanged. In addition, from 4th day of differentiation culturing, 5 nM recombinant human BMP4 (Wako) was added (FIG. 1). On 10th day of differentiation culturing, cells were collected and pelletized by a centrifugation operation to remove the culture medium. Thereafter, the pellets were immediately frozen in liquid nitrogen and stored at −80° C. until use.
The total RNA was extracted from the collected cells using RNeasy plus Mini Kit (QIAGEN). Then, a reverse transcription reaction was performed in a reaction liquid containing 1 μg of the total RNA, and Oligo (dT) using SuperScript III First Strand Synthesis System (Invitrogen) to synthesize a cDNA.
A PCR reaction was performed on a 10 μl scale, 1 U of LA-Taq DNA Polymerase (Takara) was added to 0.5 μl of a cDNA, 5 μl of 2×GC Buffer I, each 200 μM of dNTP, 1.5 mM MgCl2, and each primer having a final concentration of 0.2 μM, thermal denaturation was performed at 95° C. for 3 minutes, and the reaction was performed under the condition of (30 seconds at 95° C., 30 seconds at 55° C., and 30 seconds at 72° C.)×35 cycles (20 cycles in the case of Actb). The primers used are shown below.
Each PCR product was electrophoresed on a 2% agarose gel, stained with ethidium bromide, and a band was observed by UV irradiation.

The subject of experiment [4] is Mouse ES cells (J1 strain). In words: Hcrt expression in mouse ES cells, SFEB/gfCDM differentiation culture system, RT-PCR. Particulars: 1.0 mM from 7th day of differentiation culturing; cells collected on 25th day; FIG. 5. The method, then:
Mouse ES cells (J1 strain) which had been maintained in a medium for an ES cell were seeded on a 96-well low adhering round-bottom culture dish (Nunc) so that the cell count became 10,000 cells per well, and cultured with gfCDM [IMDM/F12 (Invitrogen) added with 5 mg/ml BSA (SIGMA), 450 μM Monothioglycerol (Wako), 1× chemically defined lipid concentrate (Invitrogen), 50 U/ml penicillin/50 μg/ml streptomycin] for 7 days. The cells were cultured in 150 μl of a medium per well. On 7th day of differentiation culturing, the medium was exchanged with a DFK medium [DMEM/F12 (Invitrogen) added with 7 g/1 glucose, 10% KSR, 50 U/ml penicillin/50 μg/ml streptomycin], and on 10th day, half the amount of the medium was exchanged with a DFNB medium [7 g/1 glucose, 1×N2 (Wako), 1×B27 (Invitrogen)] containing 10 ng/ml CNTF. On 13th day of culturing, cells were detached with 0.05% trypsin/EDTA, seeded on a culture dish (Falcon) which had been treated with poly-D-lysine/laminin so that the cell count became 4.8×10^6 cells per 10 cm culture dish, and cultured in a DFNB medium containing 10% FBS, 10 ng/ml CNTF, 50 ng/ml BDNF and 50 ng/ml NT3. The medium was exchanged every 3 days. On 25th day of differentiation culturing, cells were collected and pelletized by a centrifugation operation to remove the culture medium. Thereafter, the pellets were immediately frozen in liquid nitrogen, and stored at −80° C. until use.
The analysis was performed by the same method as that of Example 1.

On to `NC(=O)C1CCCc2c1[nH]c1ccc(Cl)cc21` (stereo not shown) [EX-527, 6-chloro-2,3,4,9-tetrahydro-1H-carbazole-1-carboxamide, reference compound], for which the “Expression of an orexin gene (Hcrt)” value in experiment [1] was “expression of Hcrt was recognized”; in experiment [2], “recognized in a ManNAc-added section and an EX-527-added section to the same extent”.
`CC(=O)N[C@H]1C(O)O[C@H](CO)[C@@H](O)[C@@H]1O` (stereo partly drawn) [GlcNAc, N-acetyl-D-glucosamine]: in experiment [3], the “Expression of Hcrt with changed time of addition” value was “observed only in a ManNAc-added section” and the “Expression of an orexin gene (Hcrt)” value is recorded as “recognized only in a ManNAc-added section”.
`CC(=O)N[C@H]1[C@H]([C@H](O)[C@H](O)CO)OC(O)(C(=O)O)C[C@@H]1O` (stereo partly shown) [Neu5Ac, N-acetylneuraminic acid]: in experiment [3], the “Expression of Hcrt with changed time of addition” value is “observed only in a ManNAc-added section” and the “Expression of an orexin gene (Hcrt)” value is given as “recognized only in a ManNAc-added section”. In addition, the “Expression of Hcrt” value in experiment [4] is given as “expression of Hcrt was recognized”.
